Key:
[1] = target: T1, human recombinant adrenergic α2B receptor (Homo sapiens, UniProt P18089); assay: Radioligand binding, adrenergic α2B ([3H]Rauwolscine); conditions: 0.1 μM compound; read-out: Percentage inhibition of ligand binding, Adrenergic α2B
T1 construct: expressed in transfected cells; host or cells: CHO-K1
T1 sequence (P18089 1-450): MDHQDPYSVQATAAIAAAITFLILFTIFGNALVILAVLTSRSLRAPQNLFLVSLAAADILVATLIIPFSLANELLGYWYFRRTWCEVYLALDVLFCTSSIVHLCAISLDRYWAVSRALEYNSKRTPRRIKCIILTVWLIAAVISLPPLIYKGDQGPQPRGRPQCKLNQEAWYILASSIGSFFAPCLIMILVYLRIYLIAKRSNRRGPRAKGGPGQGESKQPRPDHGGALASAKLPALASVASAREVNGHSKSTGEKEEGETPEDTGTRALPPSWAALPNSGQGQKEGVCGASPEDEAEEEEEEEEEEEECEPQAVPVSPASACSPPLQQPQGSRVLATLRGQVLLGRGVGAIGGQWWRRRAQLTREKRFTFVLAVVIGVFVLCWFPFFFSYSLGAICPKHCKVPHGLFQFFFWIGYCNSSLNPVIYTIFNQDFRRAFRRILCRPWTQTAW
In short: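 Membranes from CHO-K1 cells expressing human recombinant α2B, in 50 mM Tris-HCl pH 7.4, 12.5 mM MgCl2, 1 mM EDTA, 0.2% BSA, incubated with compound and 2.5 nM [3H]Rauwolscine, 60 min, 25 °C.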

[2] = target: T2, human recombinant adrenergic α2A receptor (Homo sapiens, UniProt P08913); assay: Radioligand binding, adrenergic α2A ([3H]MK-912); conditions: 0.1 μM compound; read-out: Percentage inhibition of ligand binding, Adrenergic α2A
T2 construct: expressed in transfected cells; host or cells: insect Sf9 cells
T2 sequence (P08913 1-465): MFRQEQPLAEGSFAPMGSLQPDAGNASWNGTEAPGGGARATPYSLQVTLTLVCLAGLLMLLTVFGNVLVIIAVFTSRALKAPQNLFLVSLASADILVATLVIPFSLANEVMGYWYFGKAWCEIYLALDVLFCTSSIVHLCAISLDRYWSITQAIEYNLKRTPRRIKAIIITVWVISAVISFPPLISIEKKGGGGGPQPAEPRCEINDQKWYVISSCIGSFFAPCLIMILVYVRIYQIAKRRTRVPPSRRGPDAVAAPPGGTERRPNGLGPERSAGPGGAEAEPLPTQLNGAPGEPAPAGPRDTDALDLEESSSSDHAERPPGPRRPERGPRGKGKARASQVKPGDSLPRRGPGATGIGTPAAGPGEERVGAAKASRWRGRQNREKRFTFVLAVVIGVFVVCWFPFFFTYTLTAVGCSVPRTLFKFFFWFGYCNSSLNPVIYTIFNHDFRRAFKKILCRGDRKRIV
In short: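 Sf9-expressed receptor was incubated with compound for 60 min at 25 °C in modified Tris-HCl buffer, pH 7.4. Nonspecific binding was taken as that remaining with 10 μM WB-4101.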

[3] = target: T3, rat adrenergic α1B receptor (Rattus norvegicus, UniProt P15823); assay: Radioligand binding, adrenergic α1B ([3H]Prazosin); conditions: 0.1 μM compound; read-out: Percentage inhibition of ligand binding, Adrenergic α1B
T3 construct: rat adrenergic α1B receptor obtained from Wistar Rat liver; from tissue; host or cells: Wistar rat liver
T3 sequence (P15823 1-515): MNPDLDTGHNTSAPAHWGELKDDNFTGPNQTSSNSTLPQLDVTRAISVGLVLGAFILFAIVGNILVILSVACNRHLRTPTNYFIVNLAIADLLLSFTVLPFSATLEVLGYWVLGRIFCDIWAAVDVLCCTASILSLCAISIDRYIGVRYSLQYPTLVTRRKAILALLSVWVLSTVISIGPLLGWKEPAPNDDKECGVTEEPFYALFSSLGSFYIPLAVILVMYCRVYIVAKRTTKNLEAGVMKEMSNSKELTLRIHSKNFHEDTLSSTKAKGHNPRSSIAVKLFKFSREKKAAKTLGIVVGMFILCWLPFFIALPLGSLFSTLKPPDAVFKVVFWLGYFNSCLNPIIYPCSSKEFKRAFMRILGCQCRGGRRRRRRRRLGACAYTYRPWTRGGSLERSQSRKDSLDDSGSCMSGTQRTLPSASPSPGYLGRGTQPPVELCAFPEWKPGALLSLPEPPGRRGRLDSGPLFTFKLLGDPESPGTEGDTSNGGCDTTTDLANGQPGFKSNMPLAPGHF
In short: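 Filter binding with Wistar rat liver α1B preparation: test compound plus 0.25 nM [3H]prazosin, 1 h at 25° C in modified Tris-HCl buffer pH 7.4.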

[4] = target: T4, human recombinant adrenergic α1D receptor (Homo sapiens, UniProt P25100); assay: Radioligand binding, adrenergic α1D ([3H]Prazosin); conditions: 0.1 μM compound; read-out: Percentage inhibition of ligand binding, Adrenergic α1D
T4 construct: expressed in transfected cells; host or cells: HEK-293
T4 sequence (P25100 1-572): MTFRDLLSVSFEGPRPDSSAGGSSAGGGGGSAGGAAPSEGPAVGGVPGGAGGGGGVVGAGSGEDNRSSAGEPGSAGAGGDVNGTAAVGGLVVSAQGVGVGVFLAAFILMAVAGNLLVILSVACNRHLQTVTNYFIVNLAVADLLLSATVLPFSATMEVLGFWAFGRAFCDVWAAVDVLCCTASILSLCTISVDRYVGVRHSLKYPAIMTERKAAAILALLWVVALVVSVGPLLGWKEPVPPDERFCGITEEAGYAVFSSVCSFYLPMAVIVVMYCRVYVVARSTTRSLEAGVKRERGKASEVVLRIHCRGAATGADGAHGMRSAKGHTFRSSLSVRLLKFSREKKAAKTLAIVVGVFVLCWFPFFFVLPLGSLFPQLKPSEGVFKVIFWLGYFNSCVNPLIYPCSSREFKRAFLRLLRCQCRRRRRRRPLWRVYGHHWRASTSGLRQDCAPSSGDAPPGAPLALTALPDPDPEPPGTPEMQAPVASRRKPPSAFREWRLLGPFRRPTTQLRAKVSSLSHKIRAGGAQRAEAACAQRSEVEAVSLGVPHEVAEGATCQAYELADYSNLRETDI
Experimental: Compounds were incubated with 0.6 nM [3H]Prazosin for 60 min at 25° C. Non-specific binding was estimated in the presence of 10 μM phentolamine. Receptor proteins were filtered and washed, the filters were then counted to determine [3H]Prazosin specifically bound. […] Biochemical assay results are presented as the percent inhibition of specific binding in Table B1.

SMILES | inhibition at 0.1 µM [1] [%] | inhibition at 0.1 µM [2] [%] | inhibition at 0.1 µM [3] [%] | inhibition at 0.1 µM [4] [%]
Cc1ccc2c(c1)c1c(n2CCc2cccc(C)n2)CCN(C)C1 [compound 297, 2,8-dimethyl-5-[2-(6-methyl-pyridin-2-yl)-ethyl]-2,3,4,5-tetrahydro-1H-pyrido[4,3-b]indole] | 46 | 50 | 69 | 36
Cc1ccc2c(c1)c1c(n2CCc2cccc(N(C)C)c2)CCN(C)C1 [compound 298, {3-[2-(2,8-dimethyl-1,2,3,4-tetrahydro-pyrido[4,3-b]indol-5-yl)-ethyl]-phenyl}-dimethyl-amine] | 51 | 54 | 60 | 17
Cc1ccc(CCn2c3c(c4cc(C)ccc42)CN(C)CC3)nc1 [compound 299, 2,8-dimethyl-5-[2-(5-methyl-pyridin-2-yl)-ethyl]-2,3,4,5-tetrahydro-1H-pyrido[4,3-b]indole] | 54 | 52 | 78 | 47
Cc1ccc2c(c1)c1c(n2C2=C(c3cccnc3)CCC2)CCN(C)C1 [compound 300, 2,8-dimethyl-5-(2-(pyridin-3-yl)cyclopent-1-enyl)-2,3,4,5-tetrahydro-1H-pyrido[4,3-b]indole] | 86 | 67 | 14 | 29
Cc1ccc2c(c1)c1c(n2C2=C(c3ccc(F)cc3)CCC2)CCN(C)C1 [compound 301, 5-(2-(4-fluorophenyl)cyclopent-1-enyl)-2,8-dimethyl-2,3,4,5-tetrahydro-1H-pyrido[4,3-b]indole] | 84 | 87 | 29 | 36
Cc1ccc2c(c1)c1c(n2C2=C(c3sccc3C)CCC2)CCN(C)C1 [compound 302, 2,8-dimethyl-5-(2-(3-methylthiophen-2-yl)cyclopent-1-enyl)-2,3,4,5-tetrahydro-1H-pyrido[4,3-b]indole] | 35 | 81 | 23 | 17
Cc1ccc2c(c1)c1c(n2C2=C(c3cnc(N(C)C)nc3)CCC2)CCN(C)C1 [compound 303, 5-(2-(2,8-dimethyl-3,4-dihydro-1H-pyrido[4,3-b]indol-5(2H)-yl)cyclopent-1-enyl)-N,N-dimethylpyrimidin-2-amine] | 71 | 62 | 16 | 51
Cc1csc(C2=C(n3c4c(c5cc(C)ccc53)CN(C)CC4)CCC2)c1 [compound 304, 2,8-dimethyl-5-(2-(4-methylthiophen-2-yl)cyclopent-1-enyl)-2,3,4,5-tetrahydro-1H-pyrido[4,3-b]indole] | 81 | 79 | 15 | 27
Cc1ccc2c(c1)c1c(n2C2=C(c3cc4ccccc4s3)CCC2)CCN(C)C1 [compound 305, 5-(2-(benzo[b]thiophen-2-yl)cyclopent-1-enyl)-2,8-dimethyl-2,3,4,5-tetrahydro-1H-pyrido[4,3-b]indole] | 79 | 93 | 20 | 41
Cc1ccc2c(c1)c1c(n2C2=C(c3cccc4ccccc34)CCC2)CCN(C)C1 [compound 306, 2,8-dimethyl-5-(2-(naphthalen-1-yl)cyclopent-1-enyl)-2,3,4,5-tetrahydro-1H-pyrido[4,3-b]indole] | 14 | 78 | 18 | 12
Cc1ccc2c(c1)c1c(n2C2=C(c3ccnn3C)CCC2)CCN(C)C1 [compound 309, 2,8-dimethyl-5-(2-(1-methyl-1H-pyrazol-5-yl)cyclopent-1-enyl)-2,3,4,5-tetrahydro-1H-pyrido[4,3-b]indole] | 37 | 57 | 23 | 40
C/C(=C\n1c2c(c3cc(C)cc(C)c31)CN(C)CC2)c1cccc(S(C)(=O)=O)c1 [compound 310] | 87 | 69 | 63 | 47
C/C(=C\n1c2c(c3cc(C)ccc31)CN(C)CC2)c1ccc2cnccc2c1 [compound 311] | 97 | 91 | 87 | 79
C/C(=C\n1c2c(c3cc(C)cc(C)c31)CN(C)CC2)c1ccncc1 [compound 312] | 93 | 56 | 71 | 50
Cc1ccc2c(c1)c1c(n2C#Cc2cccc3cnccc23)CCN(C)C1 [compound 313, 5-isoquinolin-5-ylethynyl-2,8-dimethyl-2,3,4,5-tetrahydro-1H-pyrido[4,3-b]indole] | 73 | 73 | 92 | 53
Cc1ccc2c(c1)c1c(n2CCc2ccc(C)nc2)C(c2ccccc2)N(C)CC1 (stereo not drawn) [compound 314] | 50 | 91 | 92 | 71
Cc1ccc(CCn2c3c(c4ccc(Cl)cc42)CN(C)CC3)cn1 [compound 315] | 48 | 59 | 4 | 3
Cc1ccc2c(c1)c1c(n2/C=C/c2cccc3cnccc23)CCN(C)C1 [compound 316, 5-(2-isoquinolin-5-yl-vinyl)-2,8-dimethyl-2,3,4,5-tetrahydro-1H-pyrido[4,3-b]indole] | 45 | 90 | 93 | 81
